From patent publication US20220081422A1 (Janssen Biotech, Inc., priority 2019, published 2022) come the findings set out here.

The target of assay [1] is T1, human DHODH (Homo sapiens, UniProt Q02127).
T1 construct: purchased Proteros PR-0044
Nature of the assay: DHODH enzymatic assay (DCIP absorbance, end-point). The format is biochemical. The conditions noted are these: purified human DHODH, DCIP as final electron acceptor, end-point mode; read-out: hDHODH IC50. The protocol: In vitro Assay: DHODH enzymatic assay
To detect DHODH enzyme activities, dichloroindophenol (DCIP) is added as the final electron acceptor in the assay. DCIP can accept electrons from the reduced coenzyme Q generated in the assay, or from dihydroorotate (DHO) via FMN by binding presumably to the ubiquinone pocket. […] The assay buffer contained […], pH 7.5, 150 mM NaCl, 0.5 mM EDTA, and 0.1% Triton X-100 in MilliQ water. Substrate consisting of 20 mM DHO, 5 mM CoQ6, and 1 mM DCIP in assay buffer, initiates the reaction. […] Absorbance measurements were obtained using the BMG Phera Star plate-reading spectrophotometer. Purified human DHODH was purchased from Proteros (cat. No. PR-0044). Chemicals were purchased from Sigma-Aldrich, Teknova, and Avanti Polar Lipids. Liquid handling was performed using Labcyte Echo and Formulatrix Tempest.

The test system of assay [2] is MOLM-13 cells. Briefly: MOLM-13 cellular assay (CellTiter-Glo cell viability). Type of assay: cell-based. The conditions noted are these: 72 hours exposure, cell viability by CellTiter-Glo. The protocol: In Vitro Assay: MOLM-13 Cellular Assay
MOLM-13 cells were obtained from DSMZ and were maintained in RPMI 1640+Glutamax+25 mM HEPES (Invitrogen, catalog number 72400) supplemented with 10% heat inactivated fetal bovine serum (FBS; Invitrogen, catalog number 16140). The day prior to assay set-up, cells were pelleted, resuspended in fresh media, counted, and cells were plated at 0.4×10^6 cell/mL in a T150 flask. On the day of the assay, cells were pelleted, resuspend in fresh media, counted and seeded at 5,000 cells/well in white opaque 96-well tissue culture treated microplates (Perkin Elmer, catalog number 6005680). Cells were exposed to different concentrations of test compounds at 37° C., 5% CO2 for 72 hours immediately after seeding. Cell viability was acquired on a Perkin Elmer Envision 2104 multilabel reader using the CellTiter-Glo assay (Promega) according to the manufacturer's instructions.

T1 sequence (Q02127 whole entry): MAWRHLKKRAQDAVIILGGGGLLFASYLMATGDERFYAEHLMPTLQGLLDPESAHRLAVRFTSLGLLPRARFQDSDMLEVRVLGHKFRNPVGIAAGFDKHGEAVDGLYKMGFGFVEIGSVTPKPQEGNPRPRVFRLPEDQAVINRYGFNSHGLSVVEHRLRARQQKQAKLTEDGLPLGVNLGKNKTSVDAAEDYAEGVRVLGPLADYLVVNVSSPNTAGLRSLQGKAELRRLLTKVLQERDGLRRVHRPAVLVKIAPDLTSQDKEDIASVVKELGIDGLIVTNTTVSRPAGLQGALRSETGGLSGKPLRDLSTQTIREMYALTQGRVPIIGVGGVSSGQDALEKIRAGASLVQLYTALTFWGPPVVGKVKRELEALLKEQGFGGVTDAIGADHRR

`C=C(C)C1CN(c2c(F)cccc2Cl)C(=O)c2cc(F)c(-n3nc(CO)n(CC)c3=O)cc21` (single isomer, unassigned) [Example 68, (R*)-2-(2-Chloro-6-fluorophenyl)-6-(4-ethyl-3-(hydroxymethyl)-5-oxo-4,5-dihydro-1H-1,2,4-triazol-1-yl)-7-fluoro-4-(prop-1-en-2-yl)-3,4-dihydroisoquinolin-1(2H)-one]: the half-inhibitory concentration (IC50) worked out at 2 nM in assay [1] and 4.66 nM in assay [2].
As to `C=C(C)C1CN(c2c(C)ccnc2Cl)C(=O)c2cc(F)c(-n3nc(CO)n(CC)c3=O)cc21` (racemic) [Example 45, Racemic-2-(2-chloro-4-methylpyridin-3-yl)-6-(4-ethyl-3-(hydroxymethyl)-5-oxo-4,5-dihydro-1H-1,2,4-triazol-1-yl)-7-fluoro-4-(prop-1-en-2-yl)-3,4-dihydroisoquinolin-1(2H)-one], the IC50 came to 7 nM in assay [1] and 6.98 nM in assay [2] (Homo sapiens, MOLM-13, 72 h).
In the same order, the values of `CCn1c(CO)nn(-c2nc3c(cc2F)C(=O)N(c2c(F)cccc2Cl)CN3[C@@H](C)C2OCCCO2)c1=O` [Example 23, (S)-1-(1-(1,3-Dioxan-2-yl)ethyl)-3-(2-chloro-6-fluorophenyl)-7-(4-ethyl-3-(hydroxymethyl)-5-oxo-4,5-dihydro-1H-1,2,4-triazol-1-yl)-6-fluoro-2,3-dihydropyrido[2,3-d]pyrimidin-4(1H)-one] are 3 nM and 6.64 nM.
On to `CCCN1CN(c2c(F)cccc2Cl)C(=O)c2cc(F)c(-n3nc(CO)n(CC)c3=O)cc21` [Example 22, 3-(2-Chloro-6-fluorophenyl)-7-(4-ethyl-3-(hydroxymethyl)-5-oxo-4,5-dihydro-1H-1,2,4-triazol-1-yl)-6-fluoro-1-propyl-2,3-dihydroquinazolin-4(1H)-one], for which the IC50 in assay [1] came to 4 nM; in assay [2] (Homo sapiens, MOLM-13, 72 h), 5.49 nM.
As to `CCn1c(CO)nn(-c2cc3c(cc2F)C(=O)N(c2ccccc2Cl)CC3C(C)C)c1=O` (single isomer, unassigned) [Example 36, (S*)-2-(2-Chlorophenyl)-6-(4-ethyl-3-(hydroxymethyl)-5-oxo-4,5-dihydro-1H-1,2,4-triazol-1-yl)-7-fluoro-4-isopropyl-3,4-dihydroisoquinolin-1(2H)-one], the IC50 in assay [1] worked out at 30 nM; in assay [2] it was 31.6 nM.
Turning to `CC[C@H](C)[C@H]1CN(c2c(F)cccc2Cl)C(=O)c2cc(F)c(-n3nc(CO)n(CC)c3=O)cc21` (relative stereo) [Example 71, (R*)-4-((S *)-sec-B utyl)-2-(2-chloro-6-fluorophenyl)-6-(4-ethyl-3-(hydroxymethyl)-5-oxo-4,5-dihydro-1H-1,2,4-triazol-1-yl)-7-fluoro-3,4-dihydroisoquinolin-1(2H)-one], the IC50 in assay [1] came to 4 nM; in assay [2] (Homo sapiens, MOLM-13, 72 h) it was 4.3 nM.
For the compound `C=C(C)C1CN(c2c(F)cccc2Cl)C(=O)c2cc(F)c(-n3nc(CO)n(CC)c3=O)cc21` (single isomer, unassigned) [Example 69, (S*)-2-(2-Chloro-6-fluorophenyl)-6-(4-ethyl-3-(hydroxymethyl)-5-oxo-4,5-dihydro-1H-1,2,4-triazol-1-yl)-7-fluoro-4-(prop-1-en-2-yl)-3,4-dihydroisoquinolin-1(2H)-one], the IC50 in assay [1] was 0.3 nM; in assay [2] it was under 1.69 nM.
In the same order, the values of `C=C(C)C1CN(c2c(C)n[nH]c2Cl)C(=O)c2cc(F)c(-n3nc(CO)n(CC)c3=O)cc21` (single isomer, unassigned) [Example 49, (R *)-2-(5-Chloro-3-methyl-1H-pyrazol-4-yl)-6-(4-ethyl-3-(hydroxymethyl)-5-oxo-4,5-dihydro-1H-1,2,4-triazol-1-yl)-7-fluoro-4-(prop-1-en-2-yl)-3,4-dihydroisoquinolin-1(2H)-one] are 10 nM and 2.28 nM.
Consider `C=C(C)[C@@H]1CN(c2c(C)cc(C)nc2Cl)C(=O)c2cc(F)c(-n3nc(CO)n(CC)c3=O)cc21` (single isomer, unassigned; atropisomer 1) [Example 60, Atropisomer 1, (S*)-2-(2-Chloro-4,6-dimethylpyridin-3-yl)-6-(4-ethyl-3-(hydroxymethyl)-5-oxo-4,5-dihydro-1H-1,2,4-triazol-1-yl)-7-fluoro-4-(prop-1-en-2-yl)-3,4-dihydroisoquinolin-1(2H)-one], for which the IC50 is over 100 nM in assay [1] and 26.8 nM in assay [2].
With `C=C(C)[C@H]1CN(c2c(C)cc(C)nc2Cl)C(=O)c2cc(F)c(-n3nc(CO)n(CC)c3=O)cc21` (single isomer, unassigned; atropisomer 2) [Example 61, Atropisomer 2, (R*)-2-(2-Chloro-4,6-dimethylpyridin-3-yl)-6-(4-ethyl-3-(hydroxymethyl)-5-oxo-4,5-dihydro-1H-1,2,4-triazol-1-yl)-7-fluoro-4-(prop-1-en-2-yl)-3,4-dihydroisoquinolin-1(2H)-one], the IC50 in assay [1] was found to be 90 nM; in assay [2], 114 nM.
In the same order, the values of `C=C(C)C1CN(c2ccccc2C)C(=O)c2cc(F)c(-n3nc(CO)n(CC)c3=O)cc21` (single isomer, unassigned) [Example 42, (R *)-6-(4-Ethyl-3-(hydroxymethyl)-5-oxo-4,5-dihydro-1H-1,2,4-triazol-1-yl)-7-fluoro-4-(prop-1-en-2-yl)-2-(o-tolyl)-3,4-dihydroisoquinolin-1(2H)-one] are 4 nM and 6.79 nM.
In the same order, the values of `C=C(C)[C@@H]1CN(c2c(C)cnc(OC)c2C)C(=O)c2cc(F)c(-n3nc(CO)n(CC)c3=O)cc21` (single isomer, unassigned; atropisomer 1) [Example 54, Atropisomer 1, (S*)-6-(4-Ethyl-3-(hydroxymethyl)-5-oxo-4,5-dihydro-1H-1,2,4-triazol-1-yl)-7-fluoro-2-(2-methoxy-3,5-dimethylpyridin-4-yl)-4-(prop-1-en-2-yl)-3,4-dihydroisoquinolin-1 (2H)-one] are 20 nM and 2.2 nM.
Turning to `CCn1c(CO)nn(-c2nc3c(cc2F)C(=O)N(c2c(F)cccc2Cl)CN3C(C)C)c1=O` [Example 5, 3-(2-Chloro-6-fluorophenyl)-7-(4-ethyl-3-(hydroxymethyl)-5-oxo-4,5-dihydro-1H-1,2,4-triazol-1-yl)-6-fluoro-1-isopropyl-2,3-dihydropyrido[2,3-d]pyrimidin-4(1H)-one], the IC50 in assay [1] turned out to be 1.4 nM; in assay [2] (Homo sapiens, MOLM-13, 72 h), 1.2 nM.
Turning to `C=C(C)[C@@H]1CN(c2ccccc2Cl)C(=O)c2cc(F)c(-n3nc(CO)n(CC)c3=O)cc21` (stereo in doubt) [Example 34], the IC50 in assay [1] came to 0.9 nM; in assay [2] (Homo sapiens, MOLM-13, 72 h), 1.06 nM.
In the same order, the values of `CCn1c(CO)nn(-c2cc3c(cc2F)c(=O)n(-c2c(F)cccc2Cl)c(=O)n3C(C)C)c1=O` [Example 4, 3-(2-Chloro-6-fluorophenyl)-7-(4-ethyl-3-(hydroxymethyl)-5-oxo-4,5-dihydro-1H-1,2,4-triazol-1-yl)-6-fluoro-1-isopropylquinazoline-2,4(1H,3H)-dione] are 110 nM and 4.4 nM.
On to `C=C(C)[C@H]1CN(c2c(C)cc(C)nc2Cl)C(=O)c2cc(F)c(-n3nc(CO)n(CC)c3=O)cc21` (single isomer, unassigned; atropisomer 1) [Example 59, Atropisomer 1, (R *)-2-(2-Chloro-4,6-dimethylpyridin-3-yl)-6-(4-ethyl-3-(hydroxymethyl)-5-oxo-4,5-dihydro-1H-1,2,4-triazol-1-yl)-7-fluoro-4-(prop-1-en-2-yl)-3,4-dihydroisoquinolin-1(2H)-one], for which the IC50 in assay [1] is over 100 nM; in assay [2], 1860 nM.
In the same order, the values of `C=C(C)C1CN(c2c(C)n[nH]c2Cl)C(=O)c2cc(F)c(-n3nc(CO)n(CC)c3=O)cc21` (single isomer, unassigned) [Example 48, (S*)-2-(5-Chloro-3-methyl-1H-pyrazol-4-yl)-6-(4-ethyl-3-(hydroxymethyl)-5-oxo-4,5-dihydro-1H-1,2,4-triazol-1-yl)-7-fluoro-4-(prop-1-en-2-yl)-3,4-dihydroisoquinolin-1(2H)-one] are 20 nM and 0.834 nM.
`CCn1c(CO)nn(-c2cc3c(cc2F)C(=O)N(c2nc(OC)ccc2Cl)CN3C(C)C)c1=O` [Example 30, 3-(3-Chloro-6-methoxypyridin-2-yl)-7-(4-ethyl-3-(hydroxymethyl)-5-oxo-4,5-dihydro-1H-1,2,4-triazol-1-yl)-6-fluoro-1-isopropyl-2,3-dihydroquinazolin-4(1H)-one]: the IC50 stood at 3 nM in assay [1] and 3.39 nM in assay [2] (Homo sapiens, MOLM-13, 72 h).
In the same order, the values of `CC[C@H](C)N1CN(c2c(F)cccc2Cl)C(=O)c2cc(F)c(-n3nc(CO)n(CC)c3=O)cc21` [Example 16, (S)-1-(sec-Butyl)-3-(2-chloro-6-fluorophenyl)-7-(4-ethyl-3-(hydroxymethyl)-5-oxo-4,5-dihydro-1H-1,2,4-triazol-1-yl)-6-fluoro-2,3-dihydroquinazolin-4(1H)-one] are 0.3 nM and under 1.69 nM.
